Measurements from US20220187282A1, “CARDIOMYOCYTE PROLIFERATION” (The Council of the Queensland Institute of Medical Research, priority 2019, published 2022).

Assays:
immature hCOs = assay: immature hCO screen, Ki-67 intensity (proliferation); format: cell-based, human; conditions: for proliferation in immature hCO (Ki-67 intensity): 0.1, 1 and 10 μM, 2 days; for hCO Screen Max Effect (%): maximum over 0.1, 1, 10 uM
Experimental: Heart-dyno culture inserts were fabricated using standard SU-8 photolithography and PDMS molding practices (Mills et al., 2017a). CTRL medium: α-MEM GlutaMAX (ThermoFisher Scientific), 10% fetal bovine serum (FBS) (ThermoFisher Scientific), 200 μM L-ascorbic acid 2-phosphate sesquimagnesium salt hydrate (Sigma) and 1% Penicillin/Streptomycin (ThermoFisher Scientific). For each hCO, 5×10^4 cardiac cells in CTRL medium were mixed with collagen I to make a 3.5 μL final solution containing 2.6 mg/mL collagen I and 9% Matrigel. The bovine acid-solubilized collagen I (Devro) was first salt balanced and pH neutralized using 10×DMEM and 0.1 M NaOH, respectively, prior to mixing with Matrigel and cells. The mixture was prepared on ice and pipetted into the Heart-Dyno. The Heart-Dyno was then centrifuged at 100×g for 10 s to ensure the hCO form halfway up the posts. The mixture was then gelled at 37° C. for 60 min prior to the addition of CTRL medium to cover the tissues (150 μL/hCO). The Heart-Dyno design facilitates the self-formation of tissues around in-built PDMS exercise poles (designed to deform ˜0.07 μm/μN). The medium was changed every 2-3 days (150 μL/hCO).
hCOs were cultured in CTRL medium for formation for 5 days and then either kept in CTRL medium culture or changed to maturation medium (Mills et al., 2017a) comprising DMEM without glucose, glutamine and phenol red (ThermoFisher Scientific) supplemented with 4% […](without insulin) (ThermoFisher Scientific), 1% GlutaMAX (ThermoFisher Scientific), 200 μM L-ascorbic acid 2-phosphate sesquimagnesium salt hydrate and 1% Penicillin/Streptomycin (ThermoFisher Scientific), 1 mmol/L glucose and 100 μmon palmitic acid (conjugated to bovine serum albumin within B27 by incubating for 2h at 37° C., Sigma) with changes every 2-3 days.
Whole-Mount Immunostaining hCOs were fixed for 60 min with 1% paraformaldehyde (Sigma) at room temperature and washed 3× with PBS, after which they were incubated with primary antibodies (see Star Methods Table) in Blocking Buffer, 5% FBS and 0.2% Triton-X-100 (Sigma) in PBS overnight at 4° C. Cells were then washed in Blocking Buffer 2× for 2 h and subsequently incubated with secondary antibodies (see Star Methods Table) and Hoechst33342 (1:1000) overnight at 4° C. They were washed in Blocking Buffer 2× for 2 h and imaged in situ or mounted on microscope slides using Fluoromount-G (Southern Biotech).
For screening hCOs were imaged using a Leica DMi8 high content imaging microscope for in situ imaging. Custom batch processing files were written in Matlab R2013a (Mathworks) to remove the background, calculate the image intensity, and export the batch data to an Excel (Microsoft) spreadsheet.
The compound library included 5,000 biologically annotated pre-clinical, clinical, and tool compounds. They were selected based on a combination of criteria including balancing the number of external/internal compounds, diversity of annotated targets to cover greater than 1500 biological targets, and known targets associated with cell proliferation. […] Both negative vehicle (DMSO) and positive (CHIR99021) controls were included on each plate in each experiment (FIG. 2B,C).

[1] = test system: adult cardiomyocytes (MLC2v); assay: adult mouse intracardiac injection, BrdU+ cardiomyocytes after fix-dissociation; format: in vivo; conditions: adult mice; for cardiomyocyte DNA synthesis (BrdU+): single dose 10 mg/kg injected into the heart, 3 days
Experimental: 8-week-old male mice were anesthetized with 4% isoflurane (Bayer) with 0.25 L/min oxygen and then maintained with 2% isoflurane. Once, anaesthetised, each mouse received a s.c. buprenorphine injection (0.05 mg/kg). The animals were intubated and ventilated (Minivent, Harvard Apparatus) (tidal volume=250 respiration rate=133 strokes/min). To access the heart, a lateral thoracotomy was performed at the 4th intercostal space. A Hamilton syringe with a 30-gauge needle was used to inject ˜20 ? l of small molecule solution (final concentration 10 mg/kg) into the myocardium. All compounds were emulsified in Kolliphor/PBS solution (20% Kolliphor® HS 15 (w/v) in PBS, pH 7.4) at a concentration of 20 mg/mL. The chest wall was closed using 4-0 silk suture, the skin closed with 6-0 prolene suture and the mouse removed from anaesthesia. Following anaesthesia, mice were supplied with a s.c. injection of buprenorphine (0.05 mg/kg) and carprofen (10 mg/kg) and allowed to recover. Starting from the day of the surgery, mice received daily 5-bromo-2′-deoxyuridine (BrdU) injections (100 mg/kg, i.p.). […]
Cardiomyocytes were the counted, cytospun onto glass slides and stained with BrdU and MLC2v antibodies, relevant secondary antibodies (see Star Methods Table) and Hoechst (1:1000) to quantify proliferating cardiomyocytes. The AlexaFluor 647 was used to stain BrDU to avoid false positive associated with auto-fluorescence inherent in adult cardiomyocytes in blue-green-yellow channels. To quantify proliferation, 5,000 cardiomyocytes per heart were imaged using a Nikon Spinning Disc confocal microscope using a 20× objective.
Finally, we sought to determine whether compounds 3 and 65 could regulate adult cardiomyocyte proliferation in vivo and whether the mevalonate pathway is critical for these effects. […] Following injection, proliferation was assessed using BrdU pulse-chase for 3 days, followed by fix-dissociation of the hearts, enabling preservation and separation of cardiomyocytes (FIG. 7F) and accurate quantification of BrdU positive cardiomyocytes (FIG. 7G). […]

| SMILES | hCO Screen 0.1 uM Prolif Activation Ki-67 (%) (immature hCOs) | hCO Screen 1 uM Prolif Activation Ki-67 (%) (immature hCOs) | hCO Screen 10 uM Prolif Activation Ki-67 (%) (immature hCOs) | proliferation in immature hCO (Ki-67 intensity) (immature hCOs) | hCO Screen Max Effect (%) (immature hCOs) | DNA synthesis response with simvastatin ([1]; 10 mg/kg intracardiac plus simvastatin 20 mg/kg s.c. daily) | cardiomyocyte DNA synthesis (BrdU+) [1] |
| --- | --- | --- | --- | --- | --- | --- | --- |
| Cc1ccc(NC(=O)c2ccnc(N3CCOCC3)c2)cc1Nc1ccnc(N2CC(C)OC(C)C2)n1 (stereo not shown) [compound 3] | 299 | 23 | 111 | induced proliferation | 299 | blocked | significantly increased |
| Cc1cc(Oc2ccnc(Nc3ccc(S(N)(=O)=O)cc3)c2)c(-c2ccccn2)nc1C [compound 65] | −38 | 96 | 121 | induced proliferation | 121 |  | significantly increased |
